Experimental data as given in paper PMC13289212, “HIVIL: A human in vitro inflammatory liver model recapitulates immune-associated drug effects with high predictivity” (NAM journal, 2025).
Like-named read-outs stand apart in the source and are kept apart here.

Assays:
[1] = system: TNFα; conditions: ref Shaw et al. 2010; Zou et al. 2009; Bekker et al. 2012; Gandhi et al. 2013; Heidari et al. 2019; cited from earlier work
[2] = system: IL-6; assay: IL-6 production of iKC mono-culture; format: cell-based, human; conditions: result in words
Protocol: (§1) Enzyme-linked immunosorbent assay (ELISA) for measurement of cytokines: Interleukin-6 (IL-6), interleukin-10 (IL-10) and tumor necrosis factor alpha (TNFα) levels in the media were measured using the corresponding human-based ELISA kits (Abcam, Cambridge, United Kingdom) according to manufacturer’s instructions. The cytokine production from dosed cells was normalized with the viability value from the same well. The normalized cytokine level upon drug treatments was further presented as percentage of DMSO+LPS. Normalization to viability per well ensures that any changes in cytokines are not due to changes in cell numbers upon drug treatment and normalization to DMSO+LPS allows better comparison between different batches of experiments. This normalization approach has been used in previous studies (Rose et al. 2016).

[3] = system: HIVIL (iKCs co-cultured with iHeps); assay: AlamarBlue cell viability in HIVIL
Protocol: (§2) Stock solutions of drugs were prepared in dimethyl sulfoxide (DMSO) and dissolved in medium prior to use. […] For these two drugs, the highest DMSO concentration was 1 %. Supernatant was collected at 48 hr for measurement of cytokines, and remaining cells were subjected to viability assay prior to lysis for RNA extraction.

[4] = Cammett et al. 2009, Mendes et al. 2014, cited from earlier work
[5] = system: TNFα; assay: TNFα ELISA in HIVIL (iKCs co-cultured with iHeps, LPS, 48 hr); format: cell-based, human
From the text: (§3) Human iPSC cell line iPS (IMR90)-4 was purchased from WiCell Research Institute (Madison, WI), and maintained with a feeder-free method according to the instruction from […] Technologies (Vancouver, BC, Canada). The protocol of differentiation towards iKCs and iHeps as described previously with slight modification ([Tasnim et al., 2019]; [Cai et al., 2012]), respectively. […] More details are provided in Supplementary Methods. After differentiation, iKCs was harvested using 0.05 % trypsin-EDTA (Gibco, Waltham, Massachusetts, USA), while iHeps were dissociated with TrypLE^TM (Gibco). iHep suspension was further filtered through a 40 µm cell strainer to remove extracellular matrix clumps. Cell suspension was centrifuged at 1000 rpm for 5 min. For co-culture set up, tissue culture plates were coated with Rat tail collagen I (Gibco) diluted 100-fold in 0.02 N acetic acid, and incubated at 37 °C for 1 h and washed 3 times with PBS. According to the protocol optimized by [Tasnim et al. (2019)], iKCs was firstly seeded at a density of 14,000 per well on 96-well plate with Advanced DMEM (plus supplements) containing 5 % FBS. On the following day, iHeps were added at a density of 35,000 per well in Williams’ Medium E (plus supplements) (iHep: iKCs ratio = 2.5: 1). This reflects the physiological ratio of these cells in vivo under inflammatory conditions ([Tasnim et al., 2021]). Fresh media containing drugs was applied to co-cultures the next day. 50,000 cells were seeded to establish iHeps monoculture. THP-1 cells were kindly obtained from Dr. Eliza Fong and cultured as described by [Zeng et al. (2015)]. Details provided in Supplementary Methods.
as §2
as §1, with “Normalization to viability per well ensures that any changes in cytokines are not due to changes in cell numbers upon drug treatment and normalization to DMSO+LPS allows better comparison between different batches of experiments.” left out

[6] = system: IL-6; assay: IL-6 ELISA in HIVIL (iKCs co-cultured with iHeps, LPS, 48 hr); format: cell-based, human; conditions: HIVIL; for IL-6 response: result in words
From the text: as §3, §2
as §1, with “Normalization to viability per well ensures that any changes in cytokines are not due to changes in cell numbers upon drug treatment and normalization to DMSO+LPS allows better comparison between different batches of experiments.” left out

[7] = binary classification by human hepatotoxicity; ref Thakkar et al. 2020; cited from earlier work
[8] = system: iKCs mono-culture; assay: Cell viability of iKCs mono-culture; set-up: dose or concentration left out as unconfirmed
Protocol: (§4) Cell viability assays: Cell viability was examined with AlamarBlue^TM cell viability assay (Thermo Fisher Scientific Inc.) according to manufacturer’s instructions. Briefly, cells were exposed to AlamarBlue^TM working solution, which was diluted 10-fold using PBS containing 2 mg/mL of glucose, for 1 hour. Color change in the solution was measured using fluorescence (Ex: 530nm, Em: 590nm) in Tecan Microplate Reader M1000 PRO. The viability of dosed cells was presented as percentage of the corresponding vehicle control.

[9] = FDA-labeling information; ref Chen et al. 2016; cited from earlier work
[10] = system: iPSC(F4)-derived HIVIL; assay: Cell viability in iPSC(F4)-derived HIVIL; format: cell-based, human; conditions: result in words
Protocol: as §4

[11] = system: iHeps; assay: RNA-Seq of iHeps from mono-culture and HIVIL; format: cell-based, human; conditions: regardless of culture conditions, result in words
From the text: Subsequent analyses compared gene fold-changes of treated samples against their respective vehicle controls: "m" and "c" indicate mono- and co-culture, and "–" and "+" represent the absence or presence of LPS. […] However, this is only applicable for co-cultures where downstream effects can be traced back to cytokine changes, and not in monocultures where significant upstream cytokine changes are not observed.
RNA extraction was done using TRIzol and analyzed on a Tapestation 4200 to determine RNA Integrity Number (RIN). Only samples with RIN > 8 were sequenced. Illumina Stranded mRNA multiplexing was done with unique 96 dual indices, and all samples sequenced on the same lane of NovaSeq 6000 S4 flowcell. Data normalization was performed using DESeq2 v1.32.0 ([Love et al., 2014]) on the R programming language v4.1.0 ([R Core Team, 2021]; [R Team, 2021]). Gene enrichment analysis was done with fgsea v1.18 ([Korotkevich et al., 2021]) with gene sets downloaded from MSigDB and KEGG pathway visualization done via pathview v1.32 ([Kanehisa et al., 2021]; [Luo and Brouwer, 2013]). Other plots were produced using ggplot2 v3.3.5 and scatterplot3d v0.3-41 ([Ligges and Maechler, 2003]). The RNA-Seq dataset has been deposited in NCBI under accession number GSE189320.
RNA seq and analysis: After 48 hr of drug treatment, iHeps cultured in mono-culture and HIVIL were both subjected to TrypLE^TM dissociation, and subsequently sorted with magnetic separation with the CD163 Microbead kit (Miltenyi Biotec, Bergisch Gladbach, Germany) to obtain only iHeps. Flow-through was collected, pelleted down and snap-frozen in liquid nitrogen, before storage at -80°C. Lysates were sent to the Genome Research Informatics and Data Science platform (Agency for Science, Technology and Research, Singapore). RNA extraction was done using TRIzol and analyzed on a Tapestation 4200 to determine RNA Integrity Number (RIN). All sequenced samples included for further analysis had RIN > 8. Illumina Stranded mRNA multiplexing was done with unique 96 dual indices, and all samples sequenced on the same lane of NovaSeq 6000 S4 flowcell. Sequenced reads were trimmed for adaptor sequence using Trim Galore v0.6.4, then aligned to human genome build GRCh38 using STAR_2.6.1d. Aligned reads are summarized into count matrices using featureCounts v1.6.4 with the gene annotation file from GENCODE v37.
Data normalization was performed using DESeq2 v1.32.0 (Love et al. 2014) on the R programming language v4.1.0 (Core Team 2021; Team 2021). Gene enrichment analysis was done with fgsea v1.18 (Korotkevich et al. 2021) with gene sets downloaded from MSigDB and KEGG pathway visualization done via pathview v1.32 (Kanehisa et al. 2021; Luo and Brouwer 2013). Other plots were produced using ggplot2 v3.3.5 and scatterplot3d v0.3-41 (Ligges and Maechler 2003). The RNA-Seq dataset has been deposited in NCBI under accession number GSE189320.

[12] = system: IL-6; assay: IL-6 ELISA in iPSC(F4)-derived HIVIL; format: cell-based, human; conditions: result in words
Protocol: as §1

[13] = system: NF-κB; set-up: method as in Wahl et al. 1998; conditions: ref Wahl et al. 1998; cited from earlier work
[14] = system: IL-6; set-up: method as in ref Hassan et al. 2016; Giustarini et al. 2019; Higuchi et al. 2012; Dik et al. 2018; conditions: ref Hassan et al. 2016; Giustarini et al. 2019; Higuchi et al. 2012; Dik et al. 2018; cited from earlier work
[15] = ref in each cell: Ademisoye et al. 2018, Xu et al. 2008, Agabeyoglu and Incecayir 2009, Rojanasthien et al. 2007, Reunanen et al. 1992, Li et al. 2002, Hong-mei et al. 2013, Bareggi et al. 1987, Jiang et al. 2008

Structure (SMILES) | Reported in-vivo (murine) responses: TNFα [1] | IL-6 / cytokine production in iKC mono-culture [2] | IC50 ([3]; Homo sapiens, 48 h, read-out: IC50: viability) | Cmax [4, 15] | Cmax ([4]; ref in each cell: Xu et al. 2008) | dose at which TNFα induction was observed [5] | group by drug-dependent IL-6 production [6] | IC50 ([6]; Homo sapiens, LPS, 48 hr) | DILIst [7] | decrease in viability in iKCs [8] | DILIrank [9] | change in cell viability ([3]; HIVIL, result in words) | viability profiles among iHeps, iKCs and HIVIL ([3]; comparison of mono-cultures and co-culture) | IL-6 response [6] | cell viability [10] | IL-6 transcription in iHeps [11] | IL-6 production [12] | Reported human responses: NF-κB [13] | Reported in-vivo (murine) responses: IL-6 [14]
CN(C)CCCN1c2ccccc2Sc2ccc(Cl)cc21 [CPZ, Chlorpromazine] | TNFα↑ (Gandhi et al. 2013) | higher than that in the HIVIL model | 34.4 µM | 800 nM | 800 nM | 25 µM | dose-dependent inhibition | 12.9 µM | 1 | 50% | less | – | – | – | – | – | – | – | –
C[C@H]1COc2c(N3CCN(C)CC3)c(F)cc3c(=O)c(C(=O)O)cn1c23 [LVX, levofloxacin] | – | – | – | – | – | – | no dose-dependent changes | – | 1 | – | most | did not cause any change | similar | did not cause any change | did not influence | remained unchanged | did not influence | – | –
O=C(O)c1cc(/N=N/c2ccc(S(=O)(=O)Nc3ccccn3)cc2)ccc1O [SSZ, sulfasalazine] | – | – | – | 17600 nM | – | – | no dose-dependent changes | – | – | – | – | – | – | no change | – | – | – | NF-κB inhibitor (Wahl et al. 1998) | IL-6↓ (Dik et al. 2018)
